Data taken from patent US20090325977A1 (priority 2004, published 2009).

Tests used:
Calu-6 tumour xenograft = test: Calu-6 tumour xenograft, in vivo solid tumour model; conditions: once-daily oral, 28 days
[1] = tested on: basal endothelial cell proliferation (HUVEC); test: HUVEC assay, basal endothelial cell proliferation; type: cell-based; conditions: Homo sapiens, no VEGF stimulation
MG63 cells = MG63 cells stimulated by PDGF-AA; read-out: IC50, PDGFR-α dependent cellular proliferation; cited from earlier work
[2] = tested on: VEGF-stimulated endothelial cell proliferation (HUVEC); test: HUVEC assay, VEGF-stimulated endothelial cell proliferation; type: cell-based; conditions: Homo sapiens
[3] = biological target: stem cell factor receptor tyrosine kinase (SCF RTK, c-kit) (Homo sapiens, UniProt P10721); test: inhibition of c-kit; type: biochemical
Sequence of stem cell factor receptor tyrosine kinase (SCF RTK, c-kit) (P10721 26-976): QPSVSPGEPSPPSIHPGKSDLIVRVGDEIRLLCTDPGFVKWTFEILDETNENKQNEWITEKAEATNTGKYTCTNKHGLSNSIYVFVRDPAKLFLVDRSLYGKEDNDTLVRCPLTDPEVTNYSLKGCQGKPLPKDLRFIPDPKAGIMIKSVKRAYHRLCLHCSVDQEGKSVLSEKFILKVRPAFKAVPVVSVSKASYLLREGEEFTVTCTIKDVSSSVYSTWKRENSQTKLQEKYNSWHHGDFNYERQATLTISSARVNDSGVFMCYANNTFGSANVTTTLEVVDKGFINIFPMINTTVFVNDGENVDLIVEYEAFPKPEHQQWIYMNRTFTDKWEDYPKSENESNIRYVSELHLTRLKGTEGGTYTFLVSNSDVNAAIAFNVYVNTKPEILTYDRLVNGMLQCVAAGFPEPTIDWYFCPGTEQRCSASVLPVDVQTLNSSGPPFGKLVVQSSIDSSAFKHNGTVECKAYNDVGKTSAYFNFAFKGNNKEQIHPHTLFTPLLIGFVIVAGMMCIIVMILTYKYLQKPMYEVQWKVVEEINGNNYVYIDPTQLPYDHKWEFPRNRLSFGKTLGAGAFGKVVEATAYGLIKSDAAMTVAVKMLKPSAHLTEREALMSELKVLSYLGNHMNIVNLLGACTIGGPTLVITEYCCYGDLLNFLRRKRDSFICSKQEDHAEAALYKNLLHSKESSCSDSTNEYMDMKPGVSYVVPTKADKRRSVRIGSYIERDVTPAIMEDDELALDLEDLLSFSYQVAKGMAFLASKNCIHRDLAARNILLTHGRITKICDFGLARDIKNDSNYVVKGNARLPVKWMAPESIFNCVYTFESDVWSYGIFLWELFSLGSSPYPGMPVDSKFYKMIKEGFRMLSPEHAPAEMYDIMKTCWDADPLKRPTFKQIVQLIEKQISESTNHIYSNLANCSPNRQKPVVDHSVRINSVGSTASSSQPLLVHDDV

Question: With COc1cc2c(Oc3ccc4[nH]c(C)cc4c3F)ncnc2cc1OCCCN1CCCC1 [AZD2171, 4-(4-fluoro-2-methyl-1H-indol-5-yloxy)-6-methoxy-7-(3-(pyrrolidin-1-yl)propoxy)quinazoline] as the compound, how does the “inhibition of Calu-6 tumour xenograft growth” value (Calu-6 tumour xenograft; 1.5 mg/kg/day, P<0.01) read?
Answer: 49%

Question: And the “inhibition of Calu-6 tumour xenograft growth” value (Calu-6 tumour xenograft; 3 mg/kg/day, P<0.0001)?
Answer: 69%

Question: What about the “inhibition of Calu-6 tumour xenograft growth” value (Calu-6 tumour xenograft; 6 mg/kg/day, P<0.0001) of the same compound?
Answer: 91%

Question: What about the IC50 [1] of the same compound?
Answer: > 500 nM

Question: And the IC50 (MG63 cells)?
Answer: 40 nM

Question: And the IC50 [2]?
Answer: 0.4 ± 0.2 nM

Question: What about the inhibition of c-kit [3] of the same compound?
Answer: inhibits c-kit
